Tests used:
Test in all cases: differential drug sensitivity score (dDSS) relative to sarcoma reference cohort mean DSS (DSS units (0-100 scale difference)); higher = more selective sensitivity than reference sarcomas
Details in all cases: exposure time: 72 h; concentration range: 10-10000 nM
[1] = test system: ES-ZH009 (patient-derived Ewing sarcoma tumoroid)
Experimental: (§1)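 Drug response profiling of patient-derived Ewing sarcoma and CIC::DUX4 sarcoma tumoroid models (or cells tested directly after isolation from the tumor, 'direct'). The DSS is the normalised AUC (0-100); dDSS is the sample DSS minus the mean DSS of a 34-sarcoma reference cohort profiled in the same lab.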

[2] = test system: ES-ZH001 (patient-derived Ewing sarcoma tumoroid)
Experimental: as §1

[3] = test system: CDS-ZH002 (patient-derived CIC-DUX4 sarcoma tumoroid)
Experimental: as §1

[4] = test system: ES-ZH004 (patient-derived Ewing sarcoma tumoroid)
Experimental: as §1

[5] = test system: CDS-ZH001 (patient-derived CIC-DUX4 sarcoma tumoroid)
Experimental: as §1

[6] = test system: ES-ZH002 (patient-derived Ewing sarcoma tumoroid)
Experimental: as §1

[7] = test system: ES-ZH008 (patient-derived Ewing sarcoma tumoroid)
Experimental: as §1

[8] = test system: ES-ZH007 (patient-derived Ewing sarcoma tumoroid)
Experimental: as §1

[9] = test system: CDS-ZH003 (patient-derived CIC-DUX4 sarcoma tumoroid)
Experimental: as §1

[10] = test system: CDS-ZH001-2 (patient-derived CIC-DUX4 sarcoma tumoroid)
Experimental: as §1

[11] = test system: ES-ZH016 direct (Ewing sarcoma cells right after isolation)
Experimental: as §1

[12] = test system: ES-ZH016 (patient-derived Ewing sarcoma tumoroid)
Experimental: as §1

[13] = test system: CDS-ZH002 direct (CIC-DUX4 sarcoma cells right after isolation)
Experimental: as §1

Row | SMILES | differential drug sensitivity score [1] | differential drug sensitivity score [2] | differential drug sensitivity score [3] | differential drug sensitivity score [4] | differential drug sensitivity score [5] | differential drug sensitivity score [6] | differential drug sensitivity score [7] | differential drug sensitivity score [8] | differential drug sensitivity score [9] | differential drug sensitivity score [10] | differential drug sensitivity score [11] | differential drug sensitivity score [12] | differential drug sensitivity score [13]
1 | CC(C)(C)Cn1c(N)nc2ccc(-c3[nH]c(C(C)(C)C)nc3-c3ccc(F)cc3)nc21 [Ralimetinib] | -3.2 | -5.3 | 4.9 | -2.2 | -2.9 | 0 | -4.4 | -4.3 | 13.4 | 6.3 | – | – | –
2 | CC(C)(O)CNc1nc(Nc2ccnc(C(F)(F)F)c2)nc(-c2cccc(C(F)(F)F)n2)n1 [Enasidenib] | -1.3 | -1.3 | -1.3 | -0.7 | -1.3 | -1.3 | -1.3 | -1 | -1.3 | -1.3 | -1.3 | -1.3 | -1.3
3 | C=CC(=O)N1CCN(c2nc(=O)n(-c3c(C)ccnc3C(C)C)c3nc(-c4c(O)cccc4F)c(F)cc23)[C@@H](C)C1 [Sotorasib] | 5.5 | 4.7 | -0.1 | 5.9 | 2.7 | 10.6 | 4.1 | -3.1 | -4.3 | 0.9 | 6.3 | 2.8 | 1.9
4 | Nc1cc(C(F)(F)F)c(-c2cc(N3CCOCC3)nc(N3CCOCC3)n2)cn1 [Buparlisib] | 2.5 | 1.5 | -2.2 | -2.2 | 3.3 | 7.6 | 4.6 | -0.1 | 6.9 | 2.9 | 0.6 | -0.6 | -2.5
5 | CC(C)(C)c1nc(-c2cccc(NS(=O)(=O)c3c(F)cccc3F)c2F)c(-c2ccnc(N)n2)s1 [Dabrafenib] | 3.9 | 11.1 | -1.2 | -0.7 | -1.2 | 7.7 | 0.8 | -1.1 | -1.2 | -1.2 | 2.3 | -1.2 | -1.2
6 | CS(=O)(=O)CCNCc1ccc(-c2ccc3ncnc(Nc4ccc(OCc5cccc(F)c5)c(Cl)c4)c3c2)o1 [Lapatinib] | -0.7 | -0.7 | -0.7 | -0.7 | -0.7 | 0.3 | -0.7 | -0.7 | -0.7 | -0.5 | -0.5 | -0.7 | -0.7
7 | O=P1(N(CCCl)CCCl)NCCCO1 (stereo not given) [Cyclophosphamide] | -0.3 | -0.3 | -0.3 | -0.3 | 1.7 | 3.8 | -0.3 | -0.3 | -0.3 | -0.3 | -0.3 | -0.3 | -0.3
8 | CCN(CC)Cc1ccc2cc(COC(=O)Nc3ccc(C(=O)NO)cc3)ccc2c1 [Givinostat] | 6.8 | 1.9 | -0.9 | 4.2 | -0.7 | 5.5 | 5.9 | 3.7 | -3.4 | 2.7 | 3.3 | 3.9 | 1.5
9 | Cc1nc(Nc2n[nH]c3c2CN(C(=O)N[C@H](CN(C)C)c2ccccc2)C3(C)C)c2sccc2n1 | 12.7 | 5.3 | 0 | 9.2 | 5.9 | 15.4 | 4.9 | 17.9 | -5.2 | 5.3 | -4.7 | 0.7 | 3.6
10 | Cc1c(C(=O)Nc2ccc(N3C[C@@H](C)O[C@@H](C)C3)nc2)cccc1-c1ccc(OC(F)(F)F)cc1 [Sonidegib] | -1.4 | -1.1 | -1.4 | -1.4 | -1.4 | -1.1 | -1.4 | -1.4 | 2.3 | -1.4 | -1.4 | -1.4 | -1.4
11 | Cc1c(-c2ccc(N3CCc4cccc(C(=O)Nc5nc6ccccc6s5)c4C3)nc2C(=O)O)cnn1CC12CC3CC(CC(C3)C1)C2 | 10.9 | – | – | – | – | – | – | – | – | – | 7.8 | -9.5 | 2.8
12 | COc1ccc(-c2nc(N3CCOCC3)c3sc(CN(C)c4ncc(C(=O)NO)cn4)cc3n2)cn1 [Fimepinostat] | 6.1 | 5.9 | -3.2 | 8.6 | 1.5 | 6 | 9.2 | 10.6 | -0.5 | 5.7 | 8.8 | 0.5 | –
13 | CCn1cc(C(=O)O)c(=O)c2c(N)c(F)c(NC3CCCCC3)cc21 | 3.3 | -0.9 | -0.9 | -0.9 | -0.9 | -0.9 | -0.9 | -0.3 | -0.9 | -0.9 | 7.2 | -0.9 | –
14 | O=C(O)C1(C(=O)O)CCC1.[NH2-].[NH2-].[Pt+2] [Carboplatin] | -1.6 | -0.3 | -1.6 | 0.8 | – | 2.2 | 2.5 | -0.9 | -1.6 | -1.6 | 8.6 | 1.7 | -1.2
15 | CCN(CC)CCCC(C)Nc1ccnc2cc(Cl)ccc12 (stereo not given) [Chloroquine] | -2 | -3.8 | 5.3 | 3 | 0.3 | -0.6 | 1.4 | 2.8 | -3.8 | 4.7 | – | – | –
16 | N.N.[Cl][Pt][Cl] [Cisplatin] | -1.4 | -1.1 | -0.5 | 5.8 | – | 7.1 | 2.9 | 3.9 | – | – | – | – | -2.4

— the supplement of paper PMC12370961
